“Also recorded” adds a separate entry of the source.
What was measured:
[1] = test system: neonatal rat ventricular myocytes; test: Hypertrophic growth of isolated neonatal rat ventricular myocytes (cell area); assay type: cell-based; settings: for FGF23-induced increase in the cell area in the presence of heparin: heparin 0.19 USP/ml, increasing FGF23 concentrations, 48 hours
Method: Neonatal rat ventricular myocytes (NRVMs) were isolated using a kit according to the manufacturer's protocol (LK003300, Worthington Biochemical Corporation), as done previously.^13,16,17 Briefly, hearts from 1- to 3-day-old Sprague Dawley rats (Envigo) were harvested and minced in calcium- and magnesium-free Hanks balanced salt solution and the tissue was digested with 50 μg/ml of trypsin at 4° C. for 20 to 24 hours. Soybean trypsin inhibitor in Hanks balanced salt solution was added, and the tissue was further digested with collagenase (in Leibovitz L-15 medium) under slow rotation (0.14 g) at 37° C. for 45 minutes. Cells were broken up by triturating the suspension 20× with a standard 10-ml plastic serological pipette. Cells were then filtered through a cell strainer (70 μm, BD Falcon). Cells were incubated at room temperature for 20 minutes and spun at 100 g for 5 minutes. The cell pellet was resuspended in plating medium (DMEM Base [10013CV, Corning], 17% M199 [12350039, Gibco], 15% FBS [26140079, Gibco], I× Pen/Strep [15140122, Gibco]). For cell tracings, NRVMs were grown in 24-well plates on glass coverslips (CLS1760012, Chemglass). Slips were precoated with laminin (23017015, Invitrogen) at 10 μg/ml for 1 hour at 37° C. dissolved in PBS. Laminin was aspirated, and cells and medium were added. Cells were counted by a hemocytometer and plated at 4×10^5 cells per well. […] After 48 hours, maintenance medium was replaced, and after another 48 hours, cells were ready for treatment, giving a total of 72 hours of plating medium and 96 hours of maintenance medium before treatment. […]
The medium was aspirated, and cultured NRVMs were fixed in 2% paraformaldehyde (P-6148, Sigma-Aldrich) and 4% sucrose dissolved in PBS for 5 minutes followed by permeabilization with 1% Triton X-100 dissolved in PBS for 10 minutes. […] The cross-sectional area of myocytes was measured on the basis of α-actinin-positive staining using ImageJ software (v1.53, National Institutes of Health). […]

FGF23 binding to FGFR3c = target: T1, FGF23 binding to FGFR3c (Homo sapiens, UniProt P22607+Q9GZV9); test: Pull-down of FGF23 with Fc-FGFR on protein A/G beads with sKL, heparin or PBS; settings: with heparin, or alone
T1 construct: Fc-coupled FGFR ectodomains were immobilized on protein A/G beads; purchased R&D Systems 2604FG025/CF or 2629FG025/CF; 766FR050
T1 sequence (Q9GZV9 25-251): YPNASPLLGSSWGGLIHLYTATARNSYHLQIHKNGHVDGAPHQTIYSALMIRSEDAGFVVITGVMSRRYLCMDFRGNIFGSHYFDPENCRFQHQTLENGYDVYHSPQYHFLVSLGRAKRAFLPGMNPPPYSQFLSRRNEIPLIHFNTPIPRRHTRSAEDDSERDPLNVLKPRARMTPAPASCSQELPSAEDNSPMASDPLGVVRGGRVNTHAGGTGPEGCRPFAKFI
T1 sequence (P22607 23-375 limits assumed): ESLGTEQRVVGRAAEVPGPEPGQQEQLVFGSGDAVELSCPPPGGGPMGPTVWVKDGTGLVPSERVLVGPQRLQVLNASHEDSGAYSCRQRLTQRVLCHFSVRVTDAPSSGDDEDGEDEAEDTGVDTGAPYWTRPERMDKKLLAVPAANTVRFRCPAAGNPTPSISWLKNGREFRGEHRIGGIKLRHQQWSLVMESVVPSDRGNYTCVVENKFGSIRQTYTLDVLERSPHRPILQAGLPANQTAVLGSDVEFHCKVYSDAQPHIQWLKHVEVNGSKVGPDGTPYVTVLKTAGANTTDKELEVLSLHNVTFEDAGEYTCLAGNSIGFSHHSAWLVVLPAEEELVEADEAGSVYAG
Method: (§1) To study the interaction between Fc-tagged FGFR isoforms (Fc-FGFR), FGF isoforms, and sKL, immunoprecipitation studies were conducted. Protein A beads (6501, BioVision) and protein G beads (6511, BioVision) were used at 25 μl of a 50% stock slurry per sample in a total bead volume of 50 μl. Beads were washed 5× in activity buffer (50 mM Tris [pH 7.4], 200 mM NaCl, 0.01% Tween 20). Bead spin-down assays were all performed for 2 minutes at 5000 g. Beads were resuspended in 1 ml of activity buffer in a 1.5-ml snap cap tube. One microgram of Fc-FGFR1 to 4 was incubated with the beads for 1 hour on a bead rotator. Control samples were incubated with 2 μg of anti-FGF antibody instead of Fc-FGFR. Beads were then pelleted at 5000 g for 2 minutes and washed 5× with activity buffer. Beads were resuspended and incubated with different combinations of 500 ng of FGF, 1 μg of sKL, 1.6 United States Pharmacopeia (USP) units of heparin, or phosphate-buffered saline (PBS). Beads were incubated for 1 hour on a tube rotator, and beads were pelleted and washed as before. One hundred microliters of 1× Laemmli sample buffer (1610737, Bio-Rad) with 1.42 M 2-mercaptoethanol was added, and samples were boiled for 5 minutes. Samples were analyzed using SDS-PAGE and Western blotting.
(§2) The sample (20 μl) was loaded onto Mini-PROTEAN TGX Precast Gel 4-20% for experiments with <9 samples (4568094, Bio-Rad) or Criterion TGX Precast Gel 4-20% (5678094, Bio-Rad) for experiments with >9 samples. Gels were run in 1× Tris/Glycine/SDS buffer (1610732, Bio-Rad) at 150 V and stopped when the sample dye reached the end of the gel. Gels were removed and electrotransferred via a semi-dry cassette (1703940, Bio-Rad) in I× Tris/Glycine buffer (1610734, Bio-Rad) with 20% methanol. Gels were transferred onto polyvinylidene diflouride membranes (IPVH00010, Millipore) at 20 V for 1 hour. Membranes were then blocked in 5% dried milk with 0.5% Tween 20 diluted in Tris-buffered saline (TBST; pH 7.5) for 1 hour and probed with antibodies against specific antigens at 1:1000 in TBST with 5% dried milk. Blots were washed 3× for 5 minutes in TBST and probed with HRP-coupled secondary antibodies against specific species at 1:10,000 in TBST with 5% dried milk. Membranes were imaged on the SRX-101A X-ray film developer (Konica Minolta).

FGF23 binding to FGFR4 = target: T2, FGF23 binding to FGFR4 (Homo sapiens, UniProt P22455+Q9GZV9); test: as above; settings: with heparin, or alone
T2 construct: Fc-coupled FGFR ectodomains were immobilized on protein A/G beads; purchased R&D Systems 2604FG025/CF or 2629FG025/CF; 685FR050
T2 sequence (Q9GZV9 25-251): as the sequence (Q9GZV9 25-251) above
T2 sequence (P22455 22-369 limits assumed): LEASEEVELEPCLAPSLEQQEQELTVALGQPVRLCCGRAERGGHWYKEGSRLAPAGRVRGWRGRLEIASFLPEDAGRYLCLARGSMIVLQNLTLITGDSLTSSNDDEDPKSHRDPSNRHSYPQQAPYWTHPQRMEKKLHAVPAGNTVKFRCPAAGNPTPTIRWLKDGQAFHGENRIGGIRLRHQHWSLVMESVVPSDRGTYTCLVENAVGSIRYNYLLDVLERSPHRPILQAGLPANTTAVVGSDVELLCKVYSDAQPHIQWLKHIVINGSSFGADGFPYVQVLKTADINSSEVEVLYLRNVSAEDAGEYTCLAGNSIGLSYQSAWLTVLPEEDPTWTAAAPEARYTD
Method: as §1, §2

FGF23 binding to FGFR2c = target: T3, FGF23 binding to FGFR2c (Homo sapiens, UniProt P21802); test: as above; settings: with heparin, or alone
T3 construct: Fc-coupled FGFR ectodomains were immobilized on protein A/G beads; purchased R&D Systems 2604FG025/CF or 2629FG025/CF; 712FR050
T3 sequence (P21802 22-377 limits assumed): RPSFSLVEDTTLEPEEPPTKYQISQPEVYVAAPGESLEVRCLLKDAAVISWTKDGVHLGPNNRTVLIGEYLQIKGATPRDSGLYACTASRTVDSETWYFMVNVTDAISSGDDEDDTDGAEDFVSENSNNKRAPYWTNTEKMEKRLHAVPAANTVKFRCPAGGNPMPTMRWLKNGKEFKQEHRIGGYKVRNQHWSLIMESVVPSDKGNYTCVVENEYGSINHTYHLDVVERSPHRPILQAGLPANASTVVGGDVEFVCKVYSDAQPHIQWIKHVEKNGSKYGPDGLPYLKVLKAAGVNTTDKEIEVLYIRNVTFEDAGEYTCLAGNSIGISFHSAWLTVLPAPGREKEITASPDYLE
Method: as §1, §2

heparin [reference compound]
FGF23-induced increase in the cell area in the presence of heparin [1]: increased this effect at all FGF23 concentrations
FGF23-induced increase in the cell area in the presence of heparin ([1]; listed as heparin): further elevated
NRVM area, treatment by itself ([1]; without FGF23, 48 hours): no effect
FGF23 co-precipitation with Fc-FGFR3c (FGF23 binding to FGFR3c): weaker FGF23 binding
FGF23 co-precipitation with Fc-FGFR4 (FGF23 binding to FGFR4): efficiently coprecipitates FGF23; also recorded: increased binding of FGF23 to FGFR4
FGF23 co-precipitation with Fc-FGFR2c (FGF23 binding to FGFR2c): weaker FGF23 binding

Reference: patent US20240384250A1, “FIBROBLAST GROWTH FACTOR 23 MODULATING COMPOUNDS” (THE UAB RESEARCH FOUNDATION, priority 2021, published 2024)
